ChEMBL document CHEMBL2434905, “2-Amino-6-chloro-3,4-dihydroquinazoline: A novel 5-HT3 receptor antagonist with antidepressant character” (Bioorg Med Chem Lett, 2013)
The source made the active and inactive calls. The calls are words filed in the database; no cut-off is given here.

Tested on: Mus musculus
Experiment: Antidepressant activity in ICR mouse assessed as immobility time at 20 mg/kg, ip by tail suspension test
Assay type: functional, organism-based
Parameters: dose 20 mg/kg

With CN(C)CCCN1c2ccccc2CCc2ccccc21 the Activity was “Active”.
